The first assay concerns the target T1, human mPGES-1 (Homo sapiens, UniProt O14684).
T1 construct: made in house; host or cells: FreeStyle CHO-S cells (Chinese hamster ovary), transient transfection with pcDNA3.1(+)/human mPGES-1; microsome fraction used
T1 sequence (O14684 1-152): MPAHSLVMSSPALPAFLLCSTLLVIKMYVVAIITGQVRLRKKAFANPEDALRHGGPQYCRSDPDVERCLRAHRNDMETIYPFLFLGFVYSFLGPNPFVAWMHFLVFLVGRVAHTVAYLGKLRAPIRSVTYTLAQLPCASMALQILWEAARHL
Put plainly: Evaluation of human mPGES-1 enzyme inhibitory activity (PGE2 measured by HTRF, microsome fraction of CHO-S cells expressing human mPGES-1). Type of assay: biochemical. The conditions noted are these: IC50 value; microsome fraction of CHO-S cells expressing human mPGES-1, PGE2 by HTRF. The method, then: That is, the amount of PGE2 produced by human mPGES-1 in the presence of a test article was measured by the HTRF (homogeneous time resolved fluorescence) method, based on which the human mPGES-1 enzyme inhibitory activity of the test article was determined.
1) Preparation of Human mPGES-1 Expressing Cell Microsome Fraction
A DNA fragment containing human mPGES-1, which is added with a BamHI recognition cleavage sequence immediately before the translation initiation codon and an EcoRI recognition cleavage sequence immediately after the translation termination codon was amplified by the PCR (Polymerase Chain Reaction) method using a human mPGES-1 expression plasmid DNA (pME-18S/iPGES-1) prepared in-house as a template. The purified DNA fragment was digested with BamHI and EcoRI, and ligated to pcDNA3.1(+) (Invitrogen, model number V790-20), similarly digested with BamHI and EcoRI, by using a DNA Ligation kit ver.2.1 (Takara Bio, model number 6022). The human mPGES-1 expression plasmid DNA was isolated from Escherichia coli DH5a (TOYOBO, model number DNA-903) transformed with the obtained ligation product. The base sequence of human mPGES-1 cloned to a vector was determined by the Dye Terminator method by using BigDye Terminator v3.1 Cycle Sequencing Kit (Applied Biosystems, #4337455).
Human mPGES-1 expression plasmid DNA was transfected into Chinese hamster ovary-derived cells (FreeStyle CHO-S Cell, Invitrogen, #R800-07) by using a transgene reagent (FreeStyle MAX Reagent (Invitrogen, #16447-100)), and cultured with shaking (8% CO2, 37° C.) in a medium containing 8 mmol/L L-glutamine (GIBCO FreeStyle CHO Expression Medium, Invitrogen, #12651-022) for 48 hr.
The CHO-S cells were suspended in Homogenate Buffer (100 mmol/L potassium phosphate (pH 7.4), 250 mmol/L Sucrose, 100 mmol/L EDTA, complete EDTA free (Roche, #1873580)). Using an ultrasonic disruptor UD-201 (Tomy Seiko), the suspended cells were disrupted at output:3, duty cycle:50 for 30 seconds. The precipitate was removed by centrifugation (1,000×g, 5 min, 4° C.), is and the supernatant was centrifuged (5,000×g, 10 min, 4° C.). The supernatant was further centrifuged (105,000×g, 60 min, 4° C.). The obtained precipitate was suspended in Resuspension Buffer (100 mmol/L potassium phosphate (pH 7.4), 250 mmol/L sucrose, 100 mmol/L EDTA, 10% glycerol) to give a microsome fraction.
The protein concentration of the microsome fraction was measured by the Bradford method (Protein Assay Kit, Bio-Rad). The microsome fraction was rapidly frozen in liquid nitrogen and preserved at −80° C. Human mPGES-1 in the microsome fraction was detected by Western Blot using rabbit anti-mPGES-1 polyclonal antibody (ThermoFisher Scientific, #PA1-10264).
2) Evaluation of Human mPGES-1 Enzyme Inhibitory Activity
A test article solution diluted with 0.1 mol/L potassium phosphate, pH 7.4 (hereinafter to be referred to as KPB) or DMSO (Nacalai Tesque, #13407-45) was added at 5 μL/well to 96 well V-bottom plate (Corning, #3363). The final DMSO concentration during the reaction was set to 2% (v/v). Furthermore, a microsome fraction of CHO-S cells expressing human mPGES-1, which was diluted with reduced GSH (12.5 mmol/L KPB solution, SIGMA, #G6529-25G) such that the protein concentration was 5 μg/mL, was added at 20 μL/well. The amount of the microsome fraction used is the amount of microsome fraction within a range where the amount of PGE2 produced under the reaction conditions shown below and the amount of microsome fraction used show linearity. To the blank was added reduced GSH (12.5 mmol/L KPB solution) at 20 μL/well.
In general terms: Time-resolved FRET reads energy transfer from a long-lived donor to a nearby acceptor.
With `C[C@H](Oc1cccc(Cl)c1-c1nc(O)nc(-c2ccc(C#Cc3ccccc3)cc2)n1)c1ccccn1` [Example 2-86], it took 2.2 nM to reach half-maximal inhibition (IC50). `Cc1cccc(C)c1-c1nc(O)nc(-c2ccc(OC3CCC(C)(C)CC3)cc2)n1` [Example 2-47] came in with an IC50 of 295 nM. Against the preceding compound, the IC50 is about 130-fold higher. As for `Oc1nc(-c2ccc(C#Cc3cccc(C(F)(F)F)c3)cc2)nc(-c2c(OCc3ccccn3)cccc2C(F)(F)F)n1` [Example 2-104], it took 18 nM to reach half-maximal inhibition (IC50). `CC(=O)N(C)Cc1ccc(Cl)c(-c2nc(O)nc(-c3ccc(C(F)(F)F)cc3)n2)c1` [Example 1-21]: the IC50 was found to be 988 nM.

For `CCCc1cccc(-c2nc(O)nc(-c3cc(CNC(=O)C(C)(C)C)ccc3Cl)n2)c1` [Example 1-50], it took 0.9 nM to reach half-maximal inhibition (IC50). `Oc1nc(-c2ccc(C#Cc3ccccc3)cc2)nc(-c2c(OCc3ccc(Cl)cn3)cccc2C(F)(F)F)n1` [Example 2-112] showed an IC50 of 5.9 nM. Against the preceding compound, the IC50 is about 6.6-fold higher. The same measure, in the same setting: the result for `CC(C)(C)c1cccc(-c2nc(O)nc(-c3cc(CNC(=O)c4ccccc4)ccc3Cl)n2)c1` [Example 1-94] reads 4.6 nM; that for `Oc1nc(-c2ccc(C#Cc3ccccc3)cc2)nc(-c2c(OCc3ccccn3)cccc2C(F)(F)F)n1` [Example 2-95], 5 nM; that for `CNC(=O)c1cc(-c2nc(O)nc(-c3ccc(OCC4CC4)cc3)n2)c(Cl)cc1C` [Example 3-21], 611 nM. Still for that read-out and setting: under `Oc1nc(-c2ccc(OCC3CCCCC3)cc2)nc(-c2c(Cl)cccc2OCc2ccccn2)n1` [Example 2-77] stands 3.7 nM; under `Oc1nc(-c2ccc(C#Cc3ccccn3)cc2)nc(-c2c(Cl)cccc2OCc2ccccn2)n1` [Example 2-97], 8.9 nM. Take `Cc1cccc(COc2cccc(C(F)(F)F)c2-c2nc(O)nc(-c3ccc(C#Cc4ccc(Cl)cc4)cc3)n2)n1` [Example 2-124]: half-maximal inhibition (IC50) required 12 nM.

Regarding `CC(C)Cc1ccc(-c2nc(O)nc(-c3cc(CC(=O)N(C)C(C)(C)C)ccc3Cl)n2)cc1` [Example 1-232], half-maximal inhibition (IC50) was put at 521 nM. Regarding `CC1(C)CCCN(Cc2ccc(Cl)c(-c3nc(O)nc(-c4ccccc4)n3)c2)C1=O` [Example 1-241], it took 278 nM to reach half-maximal inhibition (IC50). This IC50 lies about 1.9-fold lower than the previous one. `Cc1cccc(COc2cccc(C(F)(F)F)c2-c2nc(O)nc(-c3ccc(C#Cc4cccc(F)c4)cc3)n2)n1` [Example 2-116] yielded an IC50 of 5.5 nM. The same measure, in the same setting: under `CC(C)Cc1ccc(-c2nc(O)nc(-c3cc(CN(C)C(=O)C(C)(C)C(F)(F)F)ccc3Cl)n2)cc1` [Example 1-206] stands 14 nM; under `Cc1cccc(C)c1-c1nc(O)nc(-c2ccc(OCC(C)(C)C)cc2)n1` [Example 2-58], 145 nM; under `CC(C)(CC(F)(F)F)C(=O)NCc1ccc(Cl)c(-c2nc(O)nc(-c3ccc(OCC4CC4)cc3)n2)c1` [Example 1-166], 1.1 nM.

`Oc1nc(-c2ccc(C#Cc3ccccn3)cc2)nc(-c2c(Cl)cccc2OCc2ccccc2)n1` [Example 2-96] registered a half-maximal inhibitory concentration (IC50) of 21 nM. `CC(C)Oc1ccc(-c2nc(O)nc(-c3cc(CNC(=O)C(C)(C)C(F)(F)F)ccc3Cl)n2)cc1` [Example 1-140] yielded an IC50 of 0.5 nM. The compound `Oc1nc(-c2ccc(C#CC3CCCCC3)cc2)nc(-c2c(Cl)cccc2OCc2ccccn2)n1` [Example 2-76] showed a half-inhibitory concentration (IC50) of 5.8 nM. For the compound `CN(Cc1ccc(Cl)c(-c2nc(O)nc(-c3ccccc3)n2)c1)C(=O)C(C)(C)C` [Example 1-221], the IC50 turned out to be 79 nM. `CC(C)(C(=O)NCc1ccc(Cl)c(-c2nc(O)nc(-c3ccc(OCCC4CC4)cc3)n2)c1)C(F)(F)F` [Example 1-167] yielded an IC50 of 1.9 nM. Compound `CN(Cc1ccc(Cl)c(-c2nc(O)nc(-c3ccccc3)n2)c1)C(=O)C(C)(C)c1ccccc1` [Example 1-237] gave an IC50 of 1300 nM. The compound `Cc1cccnc1COc1cccc(Cl)c1-c1nc(O)nc(-c2ccc(OCC(C)C)cc2)n1` [Example 2-72] came in with an IC50 of 283 nM. Compound `CCOC(=O)NCc1ccc(Cl)c(-c2nc(O)nc(-c3ccc(C(F)(F)F)cc3)n2)c1` [Example 1-38] yielded an IC50 of 1.5 nM. The same measure, in the same setting: the result for `CCC(=O)NCc1ccc(Cl)c(-c2nc(O)nc(-c3ccc(C(F)(F)F)cc3)n2)c1` [Example 1-27] reads 1 nM; that for `CCOc1c(C)ccc(Cl)c1-c1nc(O)nc(-c2ccc(C(F)(F)F)cc2)n1` [Example 3-4], 202 nM. For the compound `Oc1nc(-c2ccc(C#Cc3ccc(C(F)(F)F)cc3)cc2)nc(-c2c(OCc3ccccn3)cccc2C(F)(F)F)n1` [Example 2-105], 18 nM corresponded to half-maximal inhibition (IC50).

Consider `CO[C@](C)(C(=O)NCc1ccc(Cl)c(-c2nc(O)nc(-c3ccc(CC(C)C)cc3)n2)c1)C(F)(F)F` [Example 1-177], for which the IC50 was determined as 1.3 nM.

As to `CCC[C@H](C)Oc1ccc(-c2nc(O)nc(-c3cc(CNC(=O)C(C)(C)C(F)(F)F)ccc3Cl)n2)cc1` [Example 1-155], the midpoint of inhibition, the IC50, lay at 3.5 nM.

Take `OCCCOc1cccc(Cl)c1-c1nc(O)nc(-c2ccc(C(F)(F)F)cc2)n1` [Example 2-23]: the IC50 was determined as 155 nM. The compound `COCCOc1cccc(Cl)c1-c1nc(O)nc(-c2ccc(C(F)(F)F)cc2)n1` [Example 2-34] came in with a half-maximal inhibitory concentration (IC50) of 163 nM.

`CNC(=O)c1ccc(Cl)c(-c2nc(O)nc(-c3ccc(OCC4CC4)cc3)n2)c1` [Example 1-194] displayed an IC50 of 10500 nM.

With `Cc1cccc(C)c1-c1nc(O)nc(-c2ccc(C#CC3CCCCC3)cc2)n1` [Example 2-18], the IC50 amounted to 8 nM. The same measure, in the same setting: the result for `COc1ccnc(COc2cccc(C(F)(F)F)c2-c2nc(O)nc(-c3ccc(C#Cc4ccccc4)cc3)n2)c1` [Example 2-120] reads 4.1 nM; that for `CN(Cc1ccc(Cl)c(-c2nc(O)nc(-c3ccccc3)n2)c1)C(=O)C1(C)Cc2ccccc2C1` [Example 1-264], 163 nM. In turn, `Cc1ccc(-c2nc(O)nc(-c3c(C)cccc3C)n2)cc1` [Example 2-26] gave an IC50 of 2700 nM.

As to `CC(F)(F)c1ccc(-c2nc(O)nc(-c3cc(CNC(=O)C(C)(C)C(F)(F)F)ccc3Cl)n2)cc1` [Example 1-119], the IC50 was determined as 1 nM. Compared with the last compound, the IC50 is about 2700-fold lower. In the case of `Cc1cc(-c2nc(O)nc(-c3cc(CNC(=O)C4(C(F)(F)F)CC4)ccc3Cl)n2)ccc1F` [Example 1-127], the concentration for half-maximal inhibition (IC50) was 0.8 nM. The IC50 values of the last two compounds are within 1.5-fold of each other.

In turn, `Oc1nc(-c2ccc(C(F)(F)F)cc2)nc(-c2c(Cl)cccc2OCc2ccccn2)n1` [Example 2-45] returned an IC50 of 12 nM. As to `CNC(=O)Cc1ccc(Cl)c(-c2nc(O)nc(-c3ccc(C(F)(F)F)cc3)n2)c1` [Example 1-26], the IC50 worked out at 18 nM. On the same count and under the same terms, under `O=C(NCc1ccc(Cl)c(-c2nc(O)nc(-c3ccccc3)n2)c1)C1CCCCC1` [Example 1-71] stands 2.5 nM; under `CC(C)(C)COc1ccc(-c2nc(O)nc(-c3cc(CCO)ccc3Cl)n2)cc1` [Example 1-198], 14 nM; under `Cc1ccc(C#Cc2ccc(-c3nc(O)nc(-c4c(OCc5ccccn5)cccc4C(F)(F)F)n3)cc2)cc1` [Example 2-102], 5.9 nM. Consider `CCc1cccc(-c2nc(O)nc(-c3cc(CNC(=O)[C@@](C)(OC)C(F)(F)F)ccc3Cl)n2)c1` [Example 1-121], for which half-maximal inhibition (IC50) was put at 1.2 nM. Compound `Cc1ccc(C#Cc2ccc(-c3nc(O)nc(-c4c(OCc5cccc(C)n5)cccc4C(F)(F)F)n3)cc2)cc1` [Example 2-127] returned an IC50 of 6.2 nM.

Staying with this assay, now noted: at 30 μM test article.
Regarding `Cc1ccc(C(=O)O)cc1-c1nc(O)nc(-c2ccc(C(F)(F)F)cc2)n1` [Example 1-10], testing at 30 µM gave an inhibition of 5%.

By IC50 is commonly meant the midpoint of a concentration-inhibition curve. Read a high IC50 as lower potency. In general, inhibition refers to the change of the read-out against control, counted positive when it falls. High values mean a strong effect, low ones a weak effect.

The record behind these values is patent US12398111B2, “Triazine compounds and pharmaceutical use thereof” (Japan Tobacco Inc., priority 2014, dated 2025).
